Assay results taken from patent US20230201192A1, “METHODS AND MATERIALS FOR ASSESSING AND TREATING CANCER” (Mayo Foundation for Medical Education and Research, priority 2020, published 2023).
pIC50: −log10 of the molar value.

How the values were obtained:
[1] = system: Unsaturated fatty acids (UFAs); test: Unsaturated fatty acids measured in media of cells; format: cell-based; conditions: SSI-4 sensitive cells, 1 μM SSI-4
[2] = system: PDX tumor models for RCC, HCC, melanoma and CCA; test: PDTX tumor models in Nod Scid gamma mice; format: in vivo, NSG mice; conditions: oral, 180 parts per million in chow=10 mg/kg daily; treatment from ~75 mm^3; models predicted responsive by IHC
Description: Animal models and drug testing: PDTX tumors (5×5×5-mm) were implanted into Nod Scid gamma mice with treatment (vehicle control or oral SSI-4) begun when tumors were approximately ˜75-100 mm^3. Tumor volume, food consumption and body weight were monitored twice weekly. Tumor tissue was collected and processes for IHC.
In FIG. 10, PDTX tumor models for HCC, ccRCC, CCA, and melanoma respond to SSI-4 or not correlate with predictions shown in FIG. 10. PDTX tumors were grown in the right flank of Nod Scid Gamma (NSG) mice with treatment beginning when tumors reach ˜75 mm^3 with the start of SSI-4 oral treatment. Tumor tissues were formalin fixed and paraffin block slides were stained for SCD1, c-Myc, LDHA, p-Src by standard IHC protocols for protein expression. PDTX models tested include RCC, HCC, melanoma, and CCA. * indicates statistical difference of SSI-4 from same day treatment control (P<0.05). Number in red predicts no response to SSI-4 (SCD1 inhibitor). […] Cells resistant to SSI-4 may have low or no cMyc and no or low LDHA with elevated p-Src. Cell with elevated cMyc and LDHA and low p-Src are responsive to SSI-4 or SCD1 inhibition.

[3] = system: SSI-4 sensitive HCC cells; test: Soft agar colony formation; format: cell-based; conditions: 1 micromolar SSI-4
Description: Soft agar cultures were prepared by diluting 2× growth medium 1:1 in 1.5% SeaplaqueGTG agarose (Lonza), with 500 cells/plate in 60-mm culture dishes (Genesee Scientific). Colonies were stained with Giemsa (LabChem Inc.) and counted after 3 weeks.
In FIG. 3A, cells representative of HCC (top row), RCC (middle row) and MM (bottom row) are shown. In FIG. 3B, sensitive HCC cells are treated with 1 micromolar SSI-4 showing inhibition of colony formation (i.e. growth). In FIG. 3C, colonies are quantitated comparing control to SSI-4 treated cells. […] Each treatment group was repeated in triplicate. Colony number is the mean+/−standard deviation (S.D.). Thus, soft agar assay can independently predict response to SCD1 inhibitor but requires fresh live tumor tissue and laboratories such as the Copland laboratory that can access tissues, process tissues and perform the assays.

[4] = system: endoplasmic reticulum (ER) stress induced proteins; test: mRNA expression of ER stress induced proteins by qPCR; format: cell-based; conditions: sensitive cells, 1 μM SSI-4 for 48 hours, fold change to untreated cells
[5] = system: c-Myc silenced SSI-4 responsive cells / c-Myc overexpressing nonresponsive cells; test: Cell viability after c-Myc silencing (shRNA) or c-Myc overexpression; format: cell-based
Description: c-Myc gene silencing (shRNA) and c-Myc over-expression: Lentivirus shRNA pLKO.1 constructs were used to make self-inactivating shRNA lentiviruses for human c-Myc and a nontarget random scrambled sequence control. Transfection reagents Lipofectamine 2000 and ViraPower were used to generate lentiviruses using HEK293FT viral progenitor cells. Cells were incubated with lentivirus plus […] polybrene for 24 hours before clonal selection with puromycin.
In FIG. 8, overexpression of c-Myc in nonresponsive SSI-4 cells convert cells to SSI-4 sensitive (growth inhibited) cells. c-Myc mRNA expression is ˜2-fold elevated in cells infected with a c-Myc expression plasmid (FIG. 8A).

[6] = Cell proliferation / viability assay (CyQuant or Coulter count), SSI-4 dose response; format: cell-based; conditions: 72 h; responsive HCC, CCA, ccRCC and MM cell lines; dose response 0.01-10,000 nM, 3 day exposure
Description: (§1) Cells were seeded at 5,000 cells/well in clear-bottom 96-well plates in triplicate. Drug treatment was applied at 1:1000 in reduced serum conditions (3%). After 72 hours, cells were washed with PBS, and stored at −80° C. prior to analysis using CyQuant® Proliferation Analysis Kit (Invitrogen) per manufacturers' protocol for relative fluorescence units. Alternatively, cells were plated 2×10^5/ well in 12-well plates (Genesee Scientific) in triplicate prior to drug treatment. After 120-hour treatment, cell number was established using a Coulter Particle Counter (Beckman). Oleic acid-albumin (Sigma Aldrich) was added to media at 5 μM, and was applied adjuvant to drug treatment. Drug stocks were prepared in DMSO (Sigma) at 1000×. IC50 dosing per cell line was calculated as described elsewhere (von Roemeling et al., Oncotarget, 9:3-20 (2018)).
(§2) SCD1 expression was examined in cell lines. Cells were treated with 1 μM SSI-4 for 3 days and a viability assay was used to identify SSI-4 sensitive and insensitive cell lines. Certain cell lines were also treated with varied doses (0.01-10,000 nM) of SSI-4 for 3 days. Not all cells that express SCD1 are sensitive to a SCD1 inhibitor (FIG. 1 and FIG. 2).

[7] = system: hepatocellular carcinoma (HCC), cholangiocarcinoma (CCA), clear cell renal cell carcinoma (ccRCC) and melanoma (MM) cell lines; test: as above; format: cell-based; conditions: responsive cell lines; 1 μM SSI-4 + 500 ug/ml BSA-OA, three days
Description: as §1, §2

[8] = system: BIP, cleaved PARP, cleaved caspase 3, c-Myc, cyclin D1, survivin; test: Western blot analysis of ER stress, apoptosis and c-Myc signaling; format: cell-based
Description: HCC, RCC, CCA, and MM cell lines (2000 cells/well) were incubated with DMSO control (1:1000), 500 ug/ml bovine serum albumin-oleic acid (BSA-OA) and/or 1 μM SSI-4 for three days and determined for cell viability (FIG. 4A). Nonresponsive cell lines are closed triangle and responsive are open triangles. […] Specificity for blockade of SCD1 is shown by rescue with the enzyme end product, oleic acid (OA).
Western blot analysis: Cell protein extracts were prepared using RIPA lysis buffer containing 50 mmol/L Tris, 5 mmol/L EDTA, 150 mmol/L NaCl, 0.1% SDS, 0.5% deoxycholate, 1% NP40, protease inhibitor cocktail, and phosphatase inhibitor. Tissue protein extracts were prepared from frozen samples using 1% SDS in 50 mmol/L pH 8.0 Tris buffer containing protease inhibitor cocktail and phosphatase inhibitor with brief sonication on ice. Electrophoresis, transfer, blocking, and antibody preparations were performed. The following primary antibodies were included: SCD1, c-Myc, pSrc Y418, Src, b-actin, PARP, cleaved caspase 3, survivin, cyclin D1. Secondary species-specific horseradish peroxidase-labeled antibodies were applied, and Supersignal Chemiluminescent Kit was used to perform detection.
In FIG. 6, c-Myc protein expression correlates with SCD1 sensitive cell lines. SCD1 protein is expressed in most cancer cells (HCC and ccRCC) while c-Myc protein expression appears to be expressed in SSI-4 sensitive cells.

SMILES: CNC(=O)c1ccnc(NC(=O)N2CCC(Oc3ccccc3Cl)CC2)c1 [SSI-4, 2-{[4-(2-Chlorophenoxy)piperidine-1-carbonyl]amino}-N-methylpyridine-4-carboxamide]
- unsaturated fatty acids (UFAs) [1]: suppressed UFAs to levels equal to non-responsive cells
- tumor response (tumor volume) [2]: respond
- colony formation on soft agar [3]: blocked colony formation
- mRNA expression for ER stress induced proteins [4]: became elevated
- sensitivity of cells silenced for c-Myc to SSI-4 treatment ([5]; SSI-4 responsive cells with c-Myc shRNA): become insensitive
- inhibition at 1 µM ([5]; c-Myc expressing (previously nonresponsive) cells, 1 uM SSI-4, read-out: enhanced growth inhibition): 33 to 45%
- pIC50 [6]: 7.40 to 9.00
- rescue of SSI-4 inhibition of cell proliferation by oleic acid (BSA-OA) [7]: complete rescue
- c-Myc and c-Myc regulated genes (cyclin D1 and survivin) protein expression ([8]; 1 μM SSI-4, restored by oleic acid BSA): down-regulated
- ER stress (BIP protein, Western) ([8]; HCC cell lines): upregulation of BIP protein
- apoptosis (cleaved PARP and cleaved caspase 3, Western) ([8]; HCC cell lines): Apoptotic cell death is induced
- cMyc protein (Western) ([8]; HCC cell lines, rescue by OA): down-regulates cMyc protein
